From PubChem BioAssay (NCI)
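Each compound was tested at five concentrations against cells in 96-well plates for 48 hours. TGI is the concentration that stops growth completely.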

What was measured:
Test in all cases: DTP human tumour cell line panel, 48 h
786-0 renal = system: 786-0 renal
A498 renal = system: A498 renal
A549 NSCLC = system: A549 NSCLC
ACHN renal = system: ACHN renal
BT-549 breast = system: BT-549 breast
CAKI-1 renal = system: CAKI-1 renal
CCRF-CEM leukemia = system: CCRF-CEM leukemia
COLO 205 colon = system: COLO 205 colon
DU-145 prostate = system: DU-145 prostate
EKVX NSCLC = system: EKVX NSCLC
HCT-116 colon = system: HCT-116 colon
HCT-15 colon = system: HCT-15 colon
HL-60(TB) leukemia = system: HL-60(TB) leukemia
HOP-62 NSCLC = system: HOP-62 NSCLC
HOP-92 NSCLC = system: HOP-92 NSCLC
HS 578T breast = system: HS 578T breast
HT29 colon = system: HT29 colon
IGROV1 ovarian = system: IGROV1 ovarian
K-562 leukemia = system: K-562 leukemia
KM12 colon = system: KM12 colon
LOX IMVI melanoma = system: LOX IMVI melanoma
MDA-MB-231 breast = system: MDA-MB-231 breast
MDA-MB-435 = system: MDA-MB-435
MDA-N = system: MDA-N
MOLT-4 leukemia = system: MOLT-4 leukemia
NCI-H226 lung = system: NCI-H226 lung
NCI-H23 lung = system: NCI-H23 lung
NCI/ADR-RES ovarian = system: NCI/ADR-RES ovarian
OVCAR-3 ovarian = system: OVCAR-3 ovarian
OVCAR-4 ovarian = system: OVCAR-4 ovarian
OVCAR-8 ovarian = system: OVCAR-8 ovarian
PC-3 prostate = system: PC-3 prostate
RPMI-8226 leukemia = system: RPMI-8226 leukemia
RXF 393 renal = system: RXF 393 renal
SF-268 CNS = system: SF-268 CNS
SF-295 CNS = system: SF-295 CNS
SK-MEL-2 melanoma = system: SK-MEL-2 melanoma
SK-MEL-28 melanoma = system: SK-MEL-28 melanoma
SK-MEL-5 melanoma = system: SK-MEL-5 melanoma
SK-OV-3 ovarian = system: SK-OV-3 ovarian
SN12C renal = system: SN12C renal
SNB-19 CNS = system: SNB-19 CNS
SNB-75 CNS = system: SNB-75 CNS
SR leukemia = system: SR leukemia
SW-620 colon = system: SW-620 colon
T-47D breast = system: T-47D breast
TK-10 renal = system: TK-10 renal
U251 CNS = system: U251 CNS
UACC-257 melanoma = system: UACC-257 melanoma
UACC-62 melanoma = system: UACC-62 melanoma
UO-31 renal = system: UO-31 renal
HCC-2998 colon = system: HCC-2998 colon
M14 melanoma = system: M14 melanoma
MALME-3M melanoma = system: MALME-3M melanoma
MCF7 breast = system: MCF7 breast
NCI-H460 lung = system: NCI-H460 lung
NCI-H522 lung = system: NCI-H522 lung
OVCAR-5 ovarian = system: OVCAR-5 ovarian

SMILES: CC1(c2ccc(Cl)cc2)c2ccccc2C(=O)N1CCCN1C(=O)c2ccccc2C1=O (stereo not given)
- TGI (786-0 renal): > 100 µM
- TGI (A498 renal): > 100 µM
- TGI (A549 NSCLC): > 100 µM
- TGI (ACHN renal): > 100 µM
- TGI (BT-549 breast): > 100 µM
- TGI (CAKI-1 renal): > 100 µM
- TGI (CCRF-CEM leukemia): > 100 µM
- TGI (COLO 205 colon): 36.2 µM
- TGI (DU-145 prostate): > 100 µM
- TGI (EKVX NSCLC): 7.25 µM
- TGI (HCT-116 colon): 37.6 µM
- TGI (HCT-15 colon): > 100 µM
- TGI (HL-60(TB) leukemia): > 100 µM
- TGI (HOP-62 NSCLC): > 100 µM
- TGI (HOP-92 NSCLC): > 100 µM
- TGI (HS 578T breast): > 100 µM
- TGI (HT29 colon): > 100 µM
- TGI (IGROV1 ovarian): 70.4 µM
- TGI (K-562 leukemia): > 100 µM
- TGI (KM12 colon): 50.8 µM
- TGI (LOX IMVI melanoma): 47.5 µM
- TGI (MDA-MB-231 breast): > 100 µM
- TGI (MDA-MB-435): > 100 µM
- TGI (MDA-N): > 100 µM
- TGI (MOLT-4 leukemia): > 100 µM
- TGI (NCI-H226 lung): 63.4 µM
- TGI (NCI-H23 lung): 97.9 µM
- TGI (NCI/ADR-RES ovarian): 76.1 µM
- TGI (OVCAR-3 ovarian): 99.7 µM
- TGI (OVCAR-4 ovarian): > 100 µM
- TGI (OVCAR-8 ovarian): > 100 µM
- TGI (PC-3 prostate): > 100 µM
- TGI (RPMI-8226 leukemia): > 100 µM
- TGI (RXF 393 renal): 94.5 µM
- TGI (SF-268 CNS): > 100 µM
- TGI (SF-295 CNS): 67 µM
- TGI (SK-MEL-2 melanoma): 46.3 µM
- TGI (SK-MEL-28 melanoma): > 100 µM
- TGI (SK-MEL-5 melanoma): 31 µM
- TGI (SK-OV-3 ovarian): > 100 µM
- TGI (SN12C renal): > 100 µM
- TGI (SNB-19 CNS): 78.5 µM
- TGI (SNB-75 CNS): > 100 µM
- TGI (SR leukemia): > 100 µM
- TGI (SW-620 colon): > 100 µM
- TGI (T-47D breast): > 100 µM
- TGI (TK-10 renal): > 100 µM
- TGI (U251 CNS): > 100 µM
- TGI (UACC-257 melanoma): > 100 µM
- TGI (UACC-62 melanoma): > 100 µM
- TGI (UO-31 renal): > 100 µM

SMILES: CN(Cc1ccccc1)C(=S)S
- TGI (786-0 renal): 40.7 µM
- TGI (A498 renal): > 100 µM
- TGI (A549 NSCLC): > 100 µM
- TGI (ACHN renal): > 100 µM
- TGI (BT-549 breast): > 100 µM
- TGI (CAKI-1 renal): > 100 µM
- TGI (CCRF-CEM leukemia): 49.2 µM
- TGI (COLO 205 colon): > 100 µM
- TGI (DU-145 prostate): > 100 µM
- TGI (EKVX NSCLC): > 100 µM
- TGI (HCC-2998 colon): > 100 µM
- TGI (HCT-116 colon): 39.6 µM
- TGI (HCT-15 colon): > 100 µM
- TGI (HL-60(TB) leukemia): 59.1 µM
- TGI (HOP-62 NSCLC): > 100 µM
- TGI (HOP-92 NSCLC): > 100 µM
- TGI (HS 578T breast): > 100 µM
- TGI (HT29 colon): > 100 µM
- TGI (IGROV1 ovarian): > 100 µM
- TGI (K-562 leukemia): > 100 µM
- TGI (KM12 colon): > 100 µM
- TGI (LOX IMVI melanoma): > 100 µM
- TGI (M14 melanoma): 72.6 µM
- TGI (MALME-3M melanoma): > 100 µM
- TGI (MCF7 breast): > 100 µM
- TGI (MDA-MB-231 breast): > 100 µM
- TGI (MDA-MB-435): > 100 µM
- TGI (MDA-N): > 100 µM
- TGI (MOLT-4 leukemia): 84.6 µM
- TGI (NCI-H226 lung): > 100 µM
- TGI (NCI-H23 lung): > 100 µM
- TGI (NCI-H460 lung): > 100 µM
- TGI (NCI-H522 lung): > 100 µM
- TGI (NCI/ADR-RES ovarian): > 100 µM
- TGI (OVCAR-3 ovarian): > 100 µM
- TGI (OVCAR-4 ovarian): > 100 µM
- TGI (OVCAR-5 ovarian): > 100 µM
- TGI (OVCAR-8 ovarian): > 100 µM
- TGI (RXF 393 renal): > 100 µM
- TGI (SF-268 CNS): > 100 µM
- TGI (SF-295 CNS): > 100 µM
- TGI (SK-MEL-2 melanoma): > 100 µM
- TGI (SK-MEL-28 melanoma): > 100 µM
- TGI (SK-MEL-5 melanoma): > 100 µM
- TGI (SK-OV-3 ovarian): > 100 µM
- TGI (SN12C renal): > 100 µM
- TGI (SNB-75 CNS): > 100 µM
- TGI (SR leukemia): 59.7 µM
- TGI (SW-620 colon): > 100 µM
- TGI (T-47D breast): > 100 µM
- TGI (U251 CNS): > 100 µM
- TGI (UACC-257 melanoma): > 100 µM
- TGI (UACC-62 melanoma): > 100 µM
- TGI (UO-31 renal): 77.8 µM
